Measured values: PMC3933693, “Novel Inhibitors of Mitochondrial sn-Glycerol 3-phosphate Dehydrogenase” (PLoS ONE, 2014)

Assays:
[1] = system: ubiquinone-binding site of complex I (site IQ); experiment: Site-specific H2O2 production from site IQ in skeletal muscle mitochondria; type: biochemical, rat;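 further: H2O2 from superoxide detected by Amplex UltraRed fluorescence with added superoxide dismutase and horseradish peroxidase, endpoint read 30–40 min after substrate addition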
[2] = system: skeletal muscle mitochondria; experiment: Mitochondrial membrane potential (ΔΨm, TMRM) powered by succinate; type: biochemical, rat
Experimental: Mitochondrial membrane potential (ΔΨm) was estimated fluorimetrically as described previously on the Varian fluorimeter, except the potentiometric dye TMRM was used in quench-mode in place of safranine O [34]. […] The effect of putative small-molecule inhibitors was normalized as the % change in fluorescence between vehicle treatment and complete depolarization by the uncoupler carbonyl cyanide-4-(trifluoromethoxy)phenylhydrazone (FCCP, 2 µM) added at the end of each run. When indicated, the K^+/H^+ exchanger nigericin (80 ng ⋅ ml^−1) was added to collapse the pH gradient across the mitochondrial inner membrane (ΔpH) and maximize ΔΨm.
The assay buffer for both H2O2 and ΔΨm measurements was 120 mM KCl, 5 mM HEPES, 1 mM EGTA, 0.3% (w/v) BSA without or with 250 nM free calcium at pH 7.0. All assays were performed with stirring at 37°C.
Structure/activity analysis was performed on 18 structural analogs of two structurally-related hits from the primary screen (iGP-1 and iGP-2). These 20 compounds were tested in duplicate at 0.08–80 µM (0.1% DMSO final) in microplate format for effects on site-specific H2O2 production as described above. Additionally, four microplate assays for ΔΨm were run in parallel to the H2O2 assays. These assays were as described under “Measurement of mitochondrial H2O2 production and membrane potential” except that each substrate condition was assayed in a separate microplate. […] Plates were incubated in the dark at room temperature for 30–40 min (H2O2) or 10–15 min (ΔΨm) after the addition of substrate, and endpoint fluorescence was measured on the Victor plate reader. Endpoints were chosen for the H2O2 assays to provide good signal-to-noise ratios and linear rates of change without the indicator dye limiting the reaction. Endpoints for the ΔΨm assays were determined in pilot experiments as the times for TMRM accumulation to reach a steady state. […] Endpoint fluorescence values were normalized as described in the previous section with wells containing FCCP serving as positive controls for the ΔΨm assays.

[3] = target: T1, purified rabbit muscle cGPDH (Oryctolagus cuniculus, UniProt P08507); experiment: cGPDH enzymatic activity (NADH oxidation in the presence of DHAP); type: biochemical; conditions: Fig. 5
T1 construct: Activity of purified rabbit muscle cGPDH was measured as described by the manufacturer; purchased; host or cells: rabbit muscle
T1 sequence (P08507 1-349): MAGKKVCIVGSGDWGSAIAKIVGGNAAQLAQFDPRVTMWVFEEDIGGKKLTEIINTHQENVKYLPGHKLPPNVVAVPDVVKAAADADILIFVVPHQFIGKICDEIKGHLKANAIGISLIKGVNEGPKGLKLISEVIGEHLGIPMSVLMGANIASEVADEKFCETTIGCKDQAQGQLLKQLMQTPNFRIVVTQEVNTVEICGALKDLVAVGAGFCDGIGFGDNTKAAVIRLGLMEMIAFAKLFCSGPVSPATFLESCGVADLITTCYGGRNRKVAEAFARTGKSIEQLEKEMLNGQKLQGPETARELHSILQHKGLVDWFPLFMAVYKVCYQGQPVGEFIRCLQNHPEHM
Experimental: The effects of small-molecule inhibitors on cGPDH and mGPDH enzymatic activity were tested according to established procedures. Activity of purified rabbit muscle cGPDH was measured as described by the manufacturer as the rate of oxidation of NADH in the presence of DHAP on the Varian fluorimeter (λex = 365 nm, λem = 450 nm). Activity of cGPDH in frozen-thawed synaptosomes was measured at 37°C in a BMG Labtech PHERAstar Plus microplate reader as the linear rate of change in NADH absorbance (λ = 340 nm) specific to the addition of 2.5 mM DHAP and insensitive to 4 µM rotenone. Rates were converted to nmol NADH using an extinction coefficient of 6.22 mM^−1 ⋅ cm^−1 and a calculated pathlength of 0.6 cm.

[4] = system: skeletal muscle mitochondria; experiment: Mitochondrial membrane potential (ΔΨm, TMRM) powered by glutamate plus malate; type: biochemical, rat
[5] = system: skeletal muscle mitochondria; experiment: Mitochondrial membrane potential (ΔΨm, TMRM) powered by glycerol phosphate; type: biochemical, rat
Experimental: Mitochondrial membrane potential (ΔΨm) was estimated fluorimetrically as described previously [33] on the Varian fluorimeter, except the potentiometric dye TMRM was used in quench-mode in place of safranine O [34]. […] The effect of putative small-molecule inhibitors was normalized as the % change in fluorescence between vehicle treatment and complete depolarization by the uncoupler carbonyl cyanide-4-(trifluoromethoxy)phenylhydrazone (FCCP, 2 µM) added at the end of each run. When indicated, the K^+/H^+ exchanger nigericin (80 ng ⋅ ml^−1) was added to collapse the pH gradient across the mitochondrial inner membrane (ΔpH) and maximize ΔΨm.
Additionally, four microplate assays for ΔΨm were run in parallel to the H2O2 assays. These assays were as described under “Measurement of mitochondrial H2O2 production and membrane potential” except that each substrate condition was assayed in a separate microplate. […] Plates were incubated in the dark at room temperature for 30–40 min (H2O2) or 10–15 min (ΔΨm) after the addition of substrate, and endpoint fluorescence was measured on the Victor plate reader. […] Endpoints for the ΔΨm assays were determined in pilot experiments as the times for TMRM accumulation to reach a steady state. At room temperature, this was typically ∼ 5 min and remained stable for at least 30 min. Endpoint fluorescence values were normalized as described in the previous section with wells containing FCCP serving as positive controls for the ΔΨm assays.

cortical synaptosomes = experiment: Synaptosomal respiration (Seahorse XF24); type: cell-based, mouse; conditions: 100 µM iGP-1, 0.5 mM aminooxyacetate
Experimental: Synaptosomal respiration was tested in the Seahorse XF24 using published protocols, [41]. Synaptosomes (20 or 25 µg protein) were attached to polyethyleneimine and Geltrex-coated Seahorse plates by centrifugation in ionic medium, [41] containing 10 mM glucose. Attachment buffer was carefully replaced with ionic buffer containing DMSO, 100 µM iGP-1, 0.5 mM aminooxyacetate, or iGP-1 with aminooxyacetate, and either 10 mM pyruvate or 15 mM glucose. Plates were equilibrated for 20 min at 37°C then loaded into the instrument followed by measurement of basal respiration and injection of 5 µM FCCP (to induce maximal, uncoupled respiration) with 4 µg ⋅ mL^−1 oligomycin (to prevent compensatory reversal of ATP synthase). In some experiments, 10 mM oxamate was added with the FCCP/oligomycin to minimize regeneration of cytosolic NAD^+ by lactate dehydrogenase. Inhibition of the malate-aspartate shuttle was defined as the difference between maximal rates ± aminooxyacetate, expressed as % of control. Inhibition of the glycerol phosphate shuttle was the difference between maximal rates with aminooxyacetate ± iGP-1, as % of control.

## O=C(O)CCC(=O)Nc1ccc(-c2nc3ccccc3[nH]2)cc1 [iGP-1]
[1]; 80 μM, 5 mM succinate
  IQ H2O2 production with 5 mM Suc (% change at 80 μM): -9%
[1]; Fig. 6B
  concentration above which H2O2 production by site IQ starts to be inhibited: above 10 µM
[1]; primary screen, ∼2.5 µM, average of duplicates, 5 mM succinate
  IQ (% change from DMSO): 1.0%
[2]; 80 µM, 0.5 mM succinate
  effect on ΔΨm powered by 0.5 mM succinate: significantly decreased
[2]; 5 mM succinate
  effect on ΔΨm powered by 5 mM succinate: no effect
[3]
  effect on the soluble form of GPDH (cGPDH) activity: did not inhibit
[4]; 80 μM, 5 mM glutamate, 5 mM malate, with nigericin
  ΔΨm with Glu + Mal + Nig (% change at 80 μM): 4%
[4]; 80 μM, 5 mM glutamate, 5 mM malate, without nigericin
  ΔΨm with Glu + Mal (% change at 80 μM): 15%
[4]; primary screen, ∼2.5 µM, average of duplicates, glutamate and malate
  ΔΨm (% change from DMSO): 0.154%
[4]; without or with nigericin
  effect on ΔΨm powered by glutamate and malate: no effect
[5]; 80 μM, 16.7 mM glycerol phosphate, 4 µM rotenone, nigericin
  ΔΨm with GP + Nig (% change at 80 μM): -20%
[5]; 8, 25, and 80 µM
  effect on ΔΨm powered by glycerol phosphate: significantly decreased
Cortical synaptosomes; 10 mM pyruvate
  effect on basal or maximal respiration with pyruvate: no effect
Cortical synaptosomes; 15 mM glucose, no oxamate
  effect on basal and maximal respiration with glucose: no effect
